Bounds are passed on as bounds.

The experiment deals with Adenosylhomocysteinase (Oryctolagus cuniculus). The experiment can be described thus: Inhibitory effect against S-adenosyl-L-homocysteine hydrolase of rabbit erythrocyte.
On to `CC1=C[C@@H](n2cnc3c(N)ncnc32)[C@H](O)[C@@H]1O`, for which the IC50 (commonly the concentration that inhibits the measured activity by half) is more than 40.4 µM. In the case of `Nc1ncnc2c1ncn2[C@@H]1C=C(CCl)[C@@H](O)[C@H]1O` it was more than 35.4 µM. The value for `COCC1=C[C@@H](n2cnc3c(N)ncnc32)[C@H](O)[C@@H]1O` was more than 36 µM; that for `Nc1ncnc2c1ncn2[C@@H]1C=C(CF)[C@@H](O)[C@H]1O` was more than 37.7 µM; that for `CSCC1=C[C@@H](n2cnc3c(N)ncnc32)[C@H](O)[C@@H]1O` was more than 34 µM. In the case of `C=CC1=C[C@@H](n2cnc3c(N)ncnc32)[C@H](O)[C@@H]1O` it was more than 38.5 µM.
